Experimental data: article PMC10607100, “Anticancer and Antiphytopathogenic Activity of Fluorinated Isatins and Their Water-Soluble Hydrazone Derivatives” (International Journal of Molecular Sciences, 2023)
Like-named read-outs stand apart in the source and are kept apart here.

How the values were obtained:
[1] = system: Fusarium oxysporum IBPPM 543; assay: Mycelial radial growth inhibition; type: cell-based; details: for inhibition of growth at 1 µM: 1 nmol/mL; for inhibition of growth at 1 µM / inhibition of growth at 3 µM / inhibition of growth at 20 µM / inhibition of growth at 30 µM: read-out: Inhibition value, I (%); for inhibition of growth at 3 µM: 3 nmol/mL; for inhibition of growth at 20 µM: 20 nmol/mL; for inhibition of growth at 30 µM: 30 nmol/mL
Outline: (§1)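 Compounds mixed into molten GPY agar at various concentrations; centre inoculated with a 5-mm mycelial plug from 10-day cultures and incubated at 27 °C. Colony diameter compared with untreated control until control plate was covered (usually 12 days); ≥4 replicates in two experiments.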

[2] = system: Phytophthora cactorum VKM F-985; assay: Mycelial radial growth inhibition; type: cell-based; details: for inhibition of growth at 1 µM: 1 nmol/mL; for inhibition of growth at 1 µM / inhibition of growth at 3 µM / inhibition of growth at 7 µM / inhibition of growth / inhibition of growth at 40 µM: read-out: Inhibition value, I (%); for inhibition of growth at 3 µM: 3 nmol/mL; for inhibition of growth at 7 µM: 7 nmol/mL; for inhibition of growth: 27 nmol/mL; for inhibition of growth at 40 µM: 40 nmol/mL
Outline: as §1

[3] = system: Pectobacterium carotovorum subsp. carotovorum MI; assay: Agar-well diffusion, bactericidal activity; type: cell-based; details: Pectobacterium carotovorum, 2 mM/L
Outline: (§2)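 Bacteria spread on agar (BP medium; GYCa for X. campestris; pH 7.2–7.4) with 6-mm wells, each receiving 150 μL compound solution. Cultures grown at 28 °C; growth-inhibition zone width measured after 36–40 h.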

[4] = system: Pseudomonas fluorescens EL-2.1; assay: Agar-well diffusion, bactericidal activity; type: cell-based; details: Pseudomonas fluorescens, EL2.1, 2 mM/L
Outline: as §2

[5] = system: Pectobacterium atrosepticum 1043; assay: Agar-well diffusion, bactericidal activity; type: cell-based; details: Pectobacterium atrosepticum, 1043; 2 mM/L; average of 3 experiments; read-out: width of the inhibition zone (mm), P. atrosepticum
Outline: as §2

Micrococcus luteus B-109 = assay: Agar-well diffusion, bactericidal activity; type: cell-based; details: Micrococcus luteus
Outline: as §2

[6] = system: five representative phytopathogens; assay: Agar-well diffusion, bactericidal activity over the panel of phytopathogens; type: cell-based; details: 36 h, 2 mM solutions; dependent on the test system used; read-out: inhibition zone width (mm), range over the test systems
Outline: as §2

[7] = system: Xanthomonas campestris B-610; assay: Agar-well diffusion, bactericidal activity; type: cell-based; details: Xanthomonas campestris
Outline: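 Agar-well diffusion on GYCa agar (pH 7.2–7.4) seeded with bacterial suspension; 150 μL compound solution placed in 6-mm wells. Inhibition zone width measured after 36–40 h incubation.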

[8] = Fusarium oxysporum, IBPPM543, 72 h, age of the fungus 3 days
[9] = Fusarium oxysporum, IBPPM543, 120 h, age of the fungus 5 days
[10] = Fusarium oxysporum, IBPPM543, 168 h, age of the fungus 7 days
[11] = Fusarium oxysporum, IBPPM543, 216 h, age of the fungus 9 days
[12] = Phytophthora cactorum, 72 h, age of the fungus 3 days
[13] = Phytophthora cactorum, 120 h, age of the fungus 5 days
[14] = Phytophthora cactorum, 168 h, age of the fungus 7 days
[15] = Phytophthora cactorum, 216 h, age of the fungus 9 days
[16] = Table S3, read-out: Inhibition zone width (mm), not less

melting point: 202 to 203 °C
EC50 ([1]; Fusarium oxysporum, IBPPM543, 120 h, day 5, read-out: EC50, µg/mL at Day 5, F. oxysporum): 0.6 µg/mL
IC50 ([1]; Fusarium oxysporum, IBPPM543, read-out: IC50, antifungal activity against F. oxysporum): 0.6 µg/mL
EC50 ([2]; Phytophthora cactorum, 120 h, day 5, read-out: EC50, µg/mL at Day 5, P. cactorum): 27.4 µg/mL
Compound: Cc1ccc2c(c1)C(=NNC(=O)C[n+]1ccccc1)C(=O)N2Cc1cccc(C(F)(F)F)c1.[Cl-] [Compound 5e, 1-(2-(2-(5-Methyl-2-oxo-1-(3-(trifluoromethyl)benzyl)indolin-3-ylidene)hydrazinyl)-2-oxoethyl)pyridin-1-ium chloride]
inhibition of growth at 1 µM [1, 8]: 33%
inhibition of growth at 3 µM [1, 8]: 66%
inhibition of growth at 20 µM [1, 8]: 69%
inhibition of growth at 30 µM [1, 8]: 75%
inhibition of growth at 1 µM [1, 9]: 48%
inhibition of growth at 3 µM [1, 9]: 67%
inhibition of growth at 20 µM [1, 9]: 72%
inhibition of growth at 30 µM [1, 9]: 76%
inhibition of growth at 1 µM [1, 10]: 33%
inhibition of growth at 3 µM [1, 10]: 65%
inhibition of growth at 20 µM [1, 10]: 69%
inhibition of growth at 30 µM [1, 10]: 72%
inhibition of growth at 1 µM [1, 11]: 18%
inhibition of growth at 3 µM [1, 11]: 64%
inhibition of growth at 20 µM [1, 11]: 67%
inhibition of growth at 30 µM [1, 11]: 71%
fungicidal action stronger than N-cetylpyridinium chloride ([1]; same culture age (5 days)): 235 times
inhibition of Fusarium growth greater than fludioxonil ([1]; same culture age (5 days)): 139 times
antagonistic effect superior to that of N-cetylpyridinium chloride ([2]; 5 days of growth): 1.3 times
antagonistic effect superior to that of fludioxonil ([2]; 5 days of growth): 1.1 times
inhibition of growth at 1 µM [2, 12]: 20%
inhibition of growth at 3 µM [2, 12]: 23%
inhibition of growth at 7 µM [2, 12]: 25%
inhibition of growth [2, 12]: 28%
inhibition of growth at 40 µM [2, 12]: 35%
inhibition of growth at 1 µM [2, 13]: 16%
inhibition of growth at 3 µM [2, 13]: 19%
inhibition of growth at 7 µM [2, 13]: 30%
inhibition of growth [2, 13]: 35%
inhibition of growth at 40 µM [2, 13]: 38%
inhibition of growth at 1 µM [2, 14]: 15%
inhibition of growth at 3 µM [2, 14]: 17%
inhibition of growth at 7 µM [2, 14]: 23%
inhibition of growth [2, 14]: 26%
inhibition of growth at 40 µM [2, 14]: 29%
inhibition of growth at 1 µM [2, 15]: 14%
inhibition of growth at 3 µM [2, 15]: 17%
inhibition of growth at 7 µM [2, 15]: 19%
inhibition of growth [2, 15]: 21%
inhibition of growth at 40 µM [2, 15]: 26%
zone of inhibition at 2000 µM ([3]; average of 3 experiments, read-out: width of the inhibition zone (mm), P. carotovorum subsp. carotovorum): 5 mm
zone of inhibition at 2000 µM [3, 16]: ≥ 5 mm
zone of inhibition at 2000 µM ([4]; average of 3 experiments, read-out: width of the inhibition zone (mm), Ps. fluorescens): 7 mm
zone of inhibition at 2000 µM [4, 16]: ≥ 7 mm
zone of inhibition at 2000 µM [5]: 4 mm
zone of inhibition at 2000 µM (Micrococcus luteus B-109; B109, 2 mM/L, average of 3 experiments, read-out: width of the inhibition zone (mm), M. luteus): 6 mm
zone of inhibition at 2000 µM (Micrococcus luteus B-109; B109, Table S3, 2 mM/L, read-out: Inhibition zone width (mm), not less): ≥ 6 mm
zone of inhibition at 2000 µM [6]: 4 to 7 mm
zone of inhibition at 2000 µM ([7]; B610, 2 mM/L, average of 3 experiments, read-out: width of the inhibition zone (mm), X. campestris): 5 mm
zone of inhibition at 2000 µM ([7]; B610, Table S3, 2 mM/L, read-out: Inhibition zone width (mm), not less): ≥ 5 mm
